ChEMBL document CHEMBL1201862, “PubChem BioAssay data set” (2004)
Activity calls are given as the source filed them.

Assays:
[1] = intracellular Trypanosoma cruzi inhibitors in host cells – cell-based, plate reader, cherry-pick samples, set 3, dose response (AID 651818); format: functional;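 note: compounds incubated with infected cells for about four days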
Fatty acid synthase [2] = molecular target: T1, Fatty acid synthase (Homo sapiens, UniProt P49327); assay: FAS thioesterase domain inhibitors, dose response, biochemical, endpoint fluorescence intensity, uHTS hits (AID 624327); format: functional;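 note: fluorescence from hydrolysis of an O-methyl fluorescein acyl ester substrate by the enzyme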
Fatty acid synthase [3] = molecular target: T1, Fatty acid synthase; assay: FAS thioesterase domain inhibitors, dose response, biochemical, kinetic fluorescence intensity (AID 624326); format: functional;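 note: rate of fluorescence rise from hydrolysis of a fluorogenic O-methyl fluorescein ester substrate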
[4] = C. albicans growth with fluconazole, confirmation, fluorescence, retest (AID 2467); format: functional, cell-based
[5] = NIH-3T3 fibroblast cytotoxicity, dose response, cytotoxicity control, cell-based, fluorescence, Alamar Blue, secondary assay (AID 2327); format: functional;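 note: NIH-3T3 mouse fibroblasts cultured with fluconazole at 8 µg/mL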
INS1 = assay: beta cell apoptosis inhibitors, cytokine rescue, dose response, luminescence, retest (AID 449756); format: functional, cell-based; details: Rattus norvegicus;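 note: cell death triggered by IL-1 beta plus TNF-alpha plus IFN-gamma mixture; protective hits raise ATP signal compared with cytokine alone wells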
[6] = molecular target: Heat shock protein HSP 90-alpha (Homo sapiens, UniProt P07900); format: functional, organism-based
Streptokinase A = molecular target: T2, Streptokinase A (Streptococcus pyogenes serotype M1, UniProt P10520); assay: S. pyogenes streptokinase expression inhibitors, potency, dose response, plasminogen activation absorbance, OD405 (AID 1914); format: functional, Streptococcus pyogenes M1 GAS;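 note: secreted streptokinase activity via plasminogen activation per viability signal from cell pellet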
T2 sequence (P10520 whole entry): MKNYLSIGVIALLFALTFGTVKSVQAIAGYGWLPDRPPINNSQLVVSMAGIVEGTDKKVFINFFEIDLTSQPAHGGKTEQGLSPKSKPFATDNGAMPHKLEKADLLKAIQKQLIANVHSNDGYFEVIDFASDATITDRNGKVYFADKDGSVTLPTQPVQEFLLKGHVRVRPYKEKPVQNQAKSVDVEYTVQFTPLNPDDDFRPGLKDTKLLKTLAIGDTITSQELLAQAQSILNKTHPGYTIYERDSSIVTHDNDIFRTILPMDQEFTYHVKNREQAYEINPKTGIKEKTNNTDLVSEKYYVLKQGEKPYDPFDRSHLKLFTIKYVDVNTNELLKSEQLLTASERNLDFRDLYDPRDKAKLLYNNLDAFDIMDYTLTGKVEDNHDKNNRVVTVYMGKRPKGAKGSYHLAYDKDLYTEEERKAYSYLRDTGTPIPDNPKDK

[7] = tested on: Streptococcus sp. 'group A'; assay: growth inhibition of control SK(-) GAS strain, dose response, counter-screen for streptokinase expression inhibitor project, luminescence, kanamycin, BacTiterGlo, confirmation (AID 1900); format: functional, organism-based
Streptococcus = assay: Group A Streptococcus viability loss, dose response, counter-screen for streptokinase expression inhibitor project, luminescence, BacTiterGlo (AID 1915); format: functional, organism-based;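 note: potency for reduction of bacterial viability or growth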
[8] = molecular target: T3, Polyadenylate-binding protein 1 (Homo sapiens, UniProt P11940); assay: PABP1 MLLE–PAM2 binding inhibitor potency, dose response, biochemical, fluorescence polarization, FITC-PAM2 peptide (AID 602259); format: functional; details: read-out: IC50_Mean
[9] = molecular target: T3, Polyadenylate-binding protein 1; assay: PABP1 MLLE–PAM2 interaction inhibitors, dose response, miRNA deadenylation inhibitor project, biochemical, fluorescence polarization, Cy5-PAM2 peptide, secondary (AID 602260); format: functional; details: read-out: IC50_Mean
[10] = inhibitors of HIV Env-driven cell fusion, dose response, cherry-pick (AID 652057); format: functional, cell-based
[11] = inhibitors of clade B AD8 Env fusion, dose response, cell-based, cherry-pick (AID 652062); format: functional;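 note: luciferase signal from cell-cell fusion driven by HIV-1 clade B AD8 Env; potency is for inhibitors of fusion seen as a drop in luminescence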
Genome polyprotein = Genome polyprotein (dengue virus type 2, UniProt P29990); assay: Dengue-2 NS5 methyltransferase inhibitors, primary screen, biochemical, confirmation dose response (AID 588689); format: functional
[12] = molecular target: T4, Replicative DNA helicase DnaB (Mycobacterium tuberculosis, UniProt P9WMR3); assay: DnaB intein splicing inhibitors, dose response, biochemical, cell-free fluorescence (AID 449749); format: functional
T4 sequence (P9WMR3 whole entry): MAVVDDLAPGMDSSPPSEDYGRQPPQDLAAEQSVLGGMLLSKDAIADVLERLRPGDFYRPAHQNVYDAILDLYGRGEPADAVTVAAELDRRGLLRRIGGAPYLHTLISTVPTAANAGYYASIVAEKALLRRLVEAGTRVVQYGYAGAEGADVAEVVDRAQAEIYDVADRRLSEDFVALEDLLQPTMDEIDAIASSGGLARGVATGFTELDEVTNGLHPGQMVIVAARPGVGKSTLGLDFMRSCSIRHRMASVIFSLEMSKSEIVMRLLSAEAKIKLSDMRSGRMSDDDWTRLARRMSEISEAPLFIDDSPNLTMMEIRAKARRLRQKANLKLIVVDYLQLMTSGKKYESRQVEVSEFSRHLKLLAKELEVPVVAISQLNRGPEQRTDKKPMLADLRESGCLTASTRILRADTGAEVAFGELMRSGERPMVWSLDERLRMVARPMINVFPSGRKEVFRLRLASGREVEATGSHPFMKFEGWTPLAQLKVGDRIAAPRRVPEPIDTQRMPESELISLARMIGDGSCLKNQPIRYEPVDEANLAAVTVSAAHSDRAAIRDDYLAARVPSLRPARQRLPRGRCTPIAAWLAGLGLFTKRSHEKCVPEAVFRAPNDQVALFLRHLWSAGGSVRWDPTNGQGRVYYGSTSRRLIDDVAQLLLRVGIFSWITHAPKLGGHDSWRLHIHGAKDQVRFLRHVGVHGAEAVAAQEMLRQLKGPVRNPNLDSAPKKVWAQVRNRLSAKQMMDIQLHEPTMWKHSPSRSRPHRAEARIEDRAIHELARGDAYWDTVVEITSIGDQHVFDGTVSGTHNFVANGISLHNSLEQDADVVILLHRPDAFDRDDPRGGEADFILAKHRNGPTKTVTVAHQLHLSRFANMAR

Protein RecA = molecular target: T5, Protein RecA (Mycobacterium tuberculosis, UniProt P9WHJ3); assay: Fluorescence Cell-Free Homogeneous Dose Retest to Identify Inhibitors of RecA-Intein Splicing Activity. [Related pubchem assays (depositor defined):AID2097, AID2223, AID489010, AID492950]; format: functional
T5 sequence (P9WHJ3 whole entry): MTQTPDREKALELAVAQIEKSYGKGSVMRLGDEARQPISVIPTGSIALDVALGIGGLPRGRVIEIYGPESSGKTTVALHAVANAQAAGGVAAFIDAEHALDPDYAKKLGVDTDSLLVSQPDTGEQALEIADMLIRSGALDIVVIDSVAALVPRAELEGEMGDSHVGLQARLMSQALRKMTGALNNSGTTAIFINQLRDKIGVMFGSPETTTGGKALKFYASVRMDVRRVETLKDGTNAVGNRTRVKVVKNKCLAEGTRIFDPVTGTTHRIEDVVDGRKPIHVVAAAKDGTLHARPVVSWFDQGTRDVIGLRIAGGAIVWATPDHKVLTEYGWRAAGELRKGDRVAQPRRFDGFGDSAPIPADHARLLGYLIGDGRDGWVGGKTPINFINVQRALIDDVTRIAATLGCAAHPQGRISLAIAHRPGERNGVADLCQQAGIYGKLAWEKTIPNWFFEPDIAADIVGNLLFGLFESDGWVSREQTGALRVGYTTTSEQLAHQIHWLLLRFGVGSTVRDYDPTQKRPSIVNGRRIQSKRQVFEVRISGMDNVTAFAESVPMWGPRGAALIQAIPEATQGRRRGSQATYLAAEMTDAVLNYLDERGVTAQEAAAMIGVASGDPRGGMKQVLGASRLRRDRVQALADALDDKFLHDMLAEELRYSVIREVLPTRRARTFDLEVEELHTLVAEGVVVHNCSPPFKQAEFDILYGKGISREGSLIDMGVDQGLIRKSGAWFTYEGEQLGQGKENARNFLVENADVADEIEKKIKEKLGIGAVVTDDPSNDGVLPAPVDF

[13] = off-target signal loss in HeLa-CEM21 co-culture – HeLa F-luc CTL cells, cherry-picked, counter-screen for HIV-1 Env fusion inhibitor project, dose response (AID 652040); format: functional, cell-based;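 note: potency for signal decrease marking cytotoxic or nonspecific inhibition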
[14] = cytotoxicity toward NIH3T3 fibroblasts, dose response, counter-screen, cell-based, ATP luminescence, mouse fibroblasts (AID 2010); format: functional;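 note: cells exposed to compound for about 90 hours before reading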
[15] = inhibitors of intracellular T. cruzi replication, confirmation, NIH3T3 host cells, beta-gal luminescence (AID 2044); format: functional, cell-based;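 note: intracellular parasites grown in NIH/3T3 mouse fibroblasts as host cells; luminescent beta-galactosidase reporter signal from transgenic T. cruzi replicating inside host cells; inhibitors lower the luminescence signal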

T3 sequence (P11940 whole entry): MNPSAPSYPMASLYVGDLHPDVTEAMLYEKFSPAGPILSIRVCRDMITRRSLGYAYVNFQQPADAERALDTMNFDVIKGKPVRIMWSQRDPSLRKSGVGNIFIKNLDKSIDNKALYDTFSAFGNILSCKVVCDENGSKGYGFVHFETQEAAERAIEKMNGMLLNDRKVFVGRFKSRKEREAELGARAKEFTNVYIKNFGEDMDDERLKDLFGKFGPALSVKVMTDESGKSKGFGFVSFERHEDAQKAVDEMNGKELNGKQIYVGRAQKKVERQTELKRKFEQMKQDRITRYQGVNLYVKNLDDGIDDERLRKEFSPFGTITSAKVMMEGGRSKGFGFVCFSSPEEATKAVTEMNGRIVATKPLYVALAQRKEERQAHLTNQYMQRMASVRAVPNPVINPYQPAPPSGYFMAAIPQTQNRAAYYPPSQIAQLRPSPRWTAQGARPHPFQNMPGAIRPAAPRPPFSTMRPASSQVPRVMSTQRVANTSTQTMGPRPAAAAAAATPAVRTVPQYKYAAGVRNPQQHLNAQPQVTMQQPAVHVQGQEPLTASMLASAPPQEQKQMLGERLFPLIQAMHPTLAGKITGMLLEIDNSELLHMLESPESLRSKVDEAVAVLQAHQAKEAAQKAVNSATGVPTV
T1 sequence (P49327 whole entry, the tested form may be a part): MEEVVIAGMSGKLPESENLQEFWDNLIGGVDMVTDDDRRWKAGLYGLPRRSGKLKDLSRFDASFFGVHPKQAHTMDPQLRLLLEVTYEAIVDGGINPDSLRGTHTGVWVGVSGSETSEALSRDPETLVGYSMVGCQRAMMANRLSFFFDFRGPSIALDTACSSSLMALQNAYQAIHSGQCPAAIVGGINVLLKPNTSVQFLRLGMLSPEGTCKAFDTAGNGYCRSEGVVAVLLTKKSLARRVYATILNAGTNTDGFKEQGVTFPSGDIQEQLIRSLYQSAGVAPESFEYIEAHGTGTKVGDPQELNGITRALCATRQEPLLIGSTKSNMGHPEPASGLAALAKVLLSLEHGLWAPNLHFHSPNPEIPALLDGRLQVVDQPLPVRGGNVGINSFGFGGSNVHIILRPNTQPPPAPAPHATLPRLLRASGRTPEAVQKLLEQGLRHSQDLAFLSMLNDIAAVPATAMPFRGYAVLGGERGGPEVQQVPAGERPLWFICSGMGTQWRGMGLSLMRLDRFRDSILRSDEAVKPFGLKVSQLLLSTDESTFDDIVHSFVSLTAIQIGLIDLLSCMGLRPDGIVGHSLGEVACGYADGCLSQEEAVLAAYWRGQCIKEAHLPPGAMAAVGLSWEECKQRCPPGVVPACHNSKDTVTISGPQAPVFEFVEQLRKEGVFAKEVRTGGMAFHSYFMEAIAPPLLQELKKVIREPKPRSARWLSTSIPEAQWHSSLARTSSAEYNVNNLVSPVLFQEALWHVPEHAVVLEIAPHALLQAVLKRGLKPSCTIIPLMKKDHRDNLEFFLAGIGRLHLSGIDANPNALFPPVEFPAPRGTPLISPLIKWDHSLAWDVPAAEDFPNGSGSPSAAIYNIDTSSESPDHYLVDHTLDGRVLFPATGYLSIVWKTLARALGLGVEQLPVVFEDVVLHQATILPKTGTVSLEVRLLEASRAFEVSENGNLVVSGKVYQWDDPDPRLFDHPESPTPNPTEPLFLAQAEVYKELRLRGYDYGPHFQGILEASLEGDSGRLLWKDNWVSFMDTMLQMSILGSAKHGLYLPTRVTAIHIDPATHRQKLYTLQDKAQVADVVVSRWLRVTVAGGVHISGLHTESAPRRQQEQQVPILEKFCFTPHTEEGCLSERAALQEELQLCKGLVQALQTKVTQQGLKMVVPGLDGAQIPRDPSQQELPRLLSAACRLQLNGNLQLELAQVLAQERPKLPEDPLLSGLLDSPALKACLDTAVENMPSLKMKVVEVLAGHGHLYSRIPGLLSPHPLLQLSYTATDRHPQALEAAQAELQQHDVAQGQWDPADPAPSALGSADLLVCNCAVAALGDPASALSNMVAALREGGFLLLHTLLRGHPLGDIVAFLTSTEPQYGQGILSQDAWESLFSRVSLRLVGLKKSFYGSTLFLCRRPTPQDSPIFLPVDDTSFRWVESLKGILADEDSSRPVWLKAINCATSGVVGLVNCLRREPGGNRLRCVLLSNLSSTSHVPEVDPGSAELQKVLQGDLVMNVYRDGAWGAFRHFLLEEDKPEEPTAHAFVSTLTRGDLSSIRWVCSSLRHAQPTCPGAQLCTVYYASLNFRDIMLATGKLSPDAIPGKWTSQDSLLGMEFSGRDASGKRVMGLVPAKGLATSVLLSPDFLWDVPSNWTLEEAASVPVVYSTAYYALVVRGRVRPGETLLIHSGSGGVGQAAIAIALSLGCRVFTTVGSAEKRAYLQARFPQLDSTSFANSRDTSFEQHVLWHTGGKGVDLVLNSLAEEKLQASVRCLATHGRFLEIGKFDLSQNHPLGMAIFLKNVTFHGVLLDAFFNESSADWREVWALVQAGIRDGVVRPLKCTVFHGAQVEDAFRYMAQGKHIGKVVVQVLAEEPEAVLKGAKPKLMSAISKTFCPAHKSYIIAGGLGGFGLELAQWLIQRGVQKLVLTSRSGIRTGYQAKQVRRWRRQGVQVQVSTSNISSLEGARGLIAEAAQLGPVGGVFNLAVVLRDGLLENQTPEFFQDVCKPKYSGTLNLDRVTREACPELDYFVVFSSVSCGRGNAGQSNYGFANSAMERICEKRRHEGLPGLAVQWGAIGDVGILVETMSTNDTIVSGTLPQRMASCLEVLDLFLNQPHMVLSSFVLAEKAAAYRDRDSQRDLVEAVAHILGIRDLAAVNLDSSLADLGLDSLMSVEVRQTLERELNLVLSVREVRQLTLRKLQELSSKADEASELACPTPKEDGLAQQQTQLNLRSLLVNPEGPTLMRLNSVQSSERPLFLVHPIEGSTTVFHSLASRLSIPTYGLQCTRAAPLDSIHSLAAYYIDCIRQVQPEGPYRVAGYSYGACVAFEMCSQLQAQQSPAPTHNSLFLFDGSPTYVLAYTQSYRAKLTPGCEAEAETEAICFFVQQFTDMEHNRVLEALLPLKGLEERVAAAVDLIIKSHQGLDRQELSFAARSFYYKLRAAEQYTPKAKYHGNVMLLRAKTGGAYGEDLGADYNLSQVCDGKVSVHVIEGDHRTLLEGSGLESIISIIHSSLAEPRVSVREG
Chain of Genome polyprotein (P29990 2492-3391 limits assumed): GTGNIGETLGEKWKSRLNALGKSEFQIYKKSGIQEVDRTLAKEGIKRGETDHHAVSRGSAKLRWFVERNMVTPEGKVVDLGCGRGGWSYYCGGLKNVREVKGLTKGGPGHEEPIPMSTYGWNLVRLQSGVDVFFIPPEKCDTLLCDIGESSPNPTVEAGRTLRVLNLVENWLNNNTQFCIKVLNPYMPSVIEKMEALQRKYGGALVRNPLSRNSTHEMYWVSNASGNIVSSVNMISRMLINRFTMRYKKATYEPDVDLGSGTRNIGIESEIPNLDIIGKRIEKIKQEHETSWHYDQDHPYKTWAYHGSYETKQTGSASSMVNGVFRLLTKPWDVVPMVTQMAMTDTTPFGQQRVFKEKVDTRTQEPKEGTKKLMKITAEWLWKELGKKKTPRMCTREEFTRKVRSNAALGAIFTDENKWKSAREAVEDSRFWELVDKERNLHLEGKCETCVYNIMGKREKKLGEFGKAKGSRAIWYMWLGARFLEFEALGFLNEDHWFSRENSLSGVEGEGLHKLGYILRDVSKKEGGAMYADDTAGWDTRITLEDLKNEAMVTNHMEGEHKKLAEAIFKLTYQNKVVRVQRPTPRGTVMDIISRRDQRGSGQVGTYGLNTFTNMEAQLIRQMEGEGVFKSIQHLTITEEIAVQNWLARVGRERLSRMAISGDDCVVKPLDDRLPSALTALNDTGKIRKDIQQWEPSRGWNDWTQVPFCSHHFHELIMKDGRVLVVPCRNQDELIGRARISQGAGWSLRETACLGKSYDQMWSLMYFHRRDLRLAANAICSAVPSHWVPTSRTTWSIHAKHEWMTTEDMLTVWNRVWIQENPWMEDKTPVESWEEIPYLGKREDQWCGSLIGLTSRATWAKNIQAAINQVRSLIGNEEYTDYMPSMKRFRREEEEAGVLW

Compound: C[C@H](CO)N1C[C@H](C)[C@H](CN(C)Cc2ccc3c(c2)OCO3)Oc2ccc(NC(=O)Nc3ccccc3)cc2C1=O
- AC50 [1]: 8.77 µM (active)

Compound: O=C(CCNC(=O)c1ccc([N+](=O)[O-])cc1)NCCc1ccc(Cl)cc1
- IC50 (Fatty acid synthase [2]): 8.77 µM (active)
- IC50 (Fatty acid synthase [3]): 7.38 µM (active)

Compound: C[C@H](CO)N1C[C@H](C)[C@@H](CN(C)CC2CCCCC2)Oc2c(NS(=O)(=O)c3cccs3)cccc2C1=O
- AC50 [1]: 19.7 µM (active)

Compound: Cc1ccc(CNC(=O)CSCc2cccc(F)c2)cc1
- EC50 [4]: > 38 µM (not active)
- EC50 [5]: > 150 µM (inactive)

Compound: C[C@@H]1CN([C@H](C)CO)C(=O)Cc2cc(NC(=O)Cc3cn(C)c4ccccc34)ccc2O[C@H]1CN(C)Cc1ccc(Oc2ccccc2)cc1
- AC50 [1]: 3.74 µM (active)

Compound: Nc1c(C(=O)Nc2ccc3c(c2)OCCO3)nnn1Cc1ccccc1Cl
- AC50 (INS1): 0.653 µM (active)
- AC50 [6]: 10.3 µM (active)

Compound: C[C@@H]1CN([C@H](C)CO)C(=O)c2cc(NS(=O)(=O)c3ccc(Cl)cc3)ccc2O[C@@H]1CN(C)Cc1ccc(Cl)c(Cl)c1
- AC50 [1]: 4.7 µM (active)

Compound: CCOC(=O)c1sc(N2C(=O)C(O)=C(C(=O)c3ccco3)C2c2cccc(Cl)c2)nc1C (stereo not drawn)
- EC50 [4]: 1.41 µM (active)
- EC50 (Streptokinase A): > 150 µM (not active)
- EC50 [7]: 7.41 µM (active)
- EC50 (Streptococcus): 8.62 µM (active)
- EC50 [5]: 30.5 µM (active)

Compound: O=C(Nc1cccc(C(F)(F)F)c1)Oc1ccc(Cl)c2cccnc12
- AC50 (INS1): 7.15 µM (active)
- AC50 [6]: 3.86 µM (active)
- EC50 [7]: 2.54 µM (active)
- EC50 (Streptococcus): 4.98 µM (active)

Compound: N=C(N)SCP(=O)(c1ccccc1)c1ccccc1
- IC50 [8]: > 66 µM (inactive)
- IC50 [9]: > 66 µM (inactive)

Compound: COc1ccc(NC(=O)Nc2ccc3c(c2)C(=O)N([C@H](C)CO)C[C@H](C)[C@H](CN(C)Cc2ccc(-c4ccccc4)cc2)O3)cc1
- AC50 [1]: 4.77 µM (active)

Compound: COc1ccc(NC(=O)Nc2cccc3c2O[C@@H](CN(C)Cc2ccc(C(=O)Nc4ccccc4N)cc2)[C@H](C)CN([C@H](C)CO)C3=O)cc1
- AC50 [1]: 2.41 µM (active)

Compound: Cc1ccc(S(=O)(=O)N(C)C[C@H]2Oc3cc(-c4cccc(F)c4)ccc3S(=O)(=O)N([C@@H](C)CO)C[C@H]2C)cc1
- AC50 [10]: 1.47 µM (active)
- AC50 [11]: 6.67 µM (active)

Compound: CC(C)c1ccc(NC(=O)Cc2cn(C)c3ccccc23)cc1
- EC50 [4]: > 38 µM (not active)
- EC50 [5]: > 150 µM (inactive)

Compound: C[C@H](CO)N1C[C@H](C)[C@H](CN(C)Cc2ccc(C(=O)Nc3ccccc3N)cc2)Oc2ccc(NC(=O)Nc3ccccc3)cc2CC1=O
- AC50 [1]: 2.98 µM (active)

Compound: CC(OC(=O)CSc1ccc([N+](=O)[O-])cc1)C(=O)NC1CC1 (stereo not drawn)
- IC50 [8]: > 66 µM (inactive)
- IC50 [9]: > 66 µM (inactive)

Compound: C[C@@H]1CN([C@@H](C)CO)C(=O)Cc2cc(NC(=O)Nc3ccc(C(F)(F)F)cc3)ccc2O[C@@H]1CN(C)CC1CCCCC1
- AC50 [1]: 1.93 µM (active)

Compound: O=C(Cc1ccc([N+](=O)[O-])cc1)NNC(=O)c1ccc2c(c1)OCO2
- EC50 [4]: > 38 µM (not active)
- EC50 [5]: > 150 µM (inactive)

Compound: Cc1ccc(S(=O)(=O)NCC(=O)OCC(=O)NCc2ccc3c(c2)OCO3)cc1
- AC50 [10]: 24 µM (active)
- AC50 [11]: 5.22 µM (active)

Compound: O=C(COc1ccccc1)Nc1nc(-c2ccncc2)cs1
- IC50 [8]: > 66 µM (inactive)
- IC50 [9]: > 66 µM (inactive)

Compound: O=C(O)c1cccc2c1Cc1cc([N+](=O)[O-])ccc1-2
- AC50 [6]: 0.357 µM (active)

Compound: Cc1noc(C)c1S(=O)(=O)Nc1ccc2c(c1)C(=O)N([C@H](C)CO)C[C@H](C)[C@H](CN(C)Cc1ccc(C(=O)Nc3ccccc3N)cc1)O2
- AC50 [1]: 3.11 µM (active)

Compound: Cc1ccc(N2C(=O)C(Cl)=C(N3CCOCC3)C2=O)cc1Cl
- IC50 (Genome polyprotein): 34.7 µM (active)
- AC50 [12]: 6.76 µM (active)
- EC50 (Protein RecA): 2.61 µM (active)

Compound: CC(C)(C)c1ccc(-n2ncc3c2CCCC3NC(=O)CN2CCCC2=O)cc1 (stereo not drawn)
- AC50 [13]: > 32 µM (inactive)

Compound: Cc1cc(C)cc(N2C(=O)CC(Sc3ccccc3C(=O)O)C2=O)c1 (stereo not drawn)
- IC50 [8]: > 66 µM (inactive)
- IC50 [9]: > 66 µM (inactive)

Compound: O=C(CSc1nc(O)c(Cc2ccccc2)c(=O)[nH]1)Nc1ccccc1
- IC50 [8]: > 66 µM (inactive)
- IC50 [9]: > 66 µM (inactive)

Compound: O=C(NC(=S)Nc1ccc(Oc2ccccc2)cc1)c1ccc(Cl)cc1
- IC50 [8]: > 66 µM (inactive)
- EC50 [14]: > 60 µM (not active)
- EC50 [15]: 2.34 µM (active)
- IC50 [9]: > 66 µM (inactive)

Compound: CC(NC(=O)CSC1=NCCS1)c1ccccc1 (stereo not drawn)
- IC50 [8]: > 66 µM (inactive)
- IC50 [9]: > 66 µM (inactive)
